In patent US7964738B2, “Pharmaceutical compositions and methods of use of lipophilic, silicon-substituted, cyclooxygenase-2 selective non-steroidal anti-inflammatory drugs and derivatives” (Silamed, Inc., priority 2004, dated 2011):
pIC50: −log10 of the molar value. Each block holds one molecule with its values, some of them ahead of it.

Legend:
Recombinant human COX-2 = biological target: T1, Recombinant human COX-2 (Homo sapiens, UniProt P35354); test: Recombinant human COX-2 enzyme assay (PGE2 by EIA); assay type: biochemical; conditions: preincubation 5 min at 22° C., 2 μM arachidonic acid
T1 sequence (P35354 18-604): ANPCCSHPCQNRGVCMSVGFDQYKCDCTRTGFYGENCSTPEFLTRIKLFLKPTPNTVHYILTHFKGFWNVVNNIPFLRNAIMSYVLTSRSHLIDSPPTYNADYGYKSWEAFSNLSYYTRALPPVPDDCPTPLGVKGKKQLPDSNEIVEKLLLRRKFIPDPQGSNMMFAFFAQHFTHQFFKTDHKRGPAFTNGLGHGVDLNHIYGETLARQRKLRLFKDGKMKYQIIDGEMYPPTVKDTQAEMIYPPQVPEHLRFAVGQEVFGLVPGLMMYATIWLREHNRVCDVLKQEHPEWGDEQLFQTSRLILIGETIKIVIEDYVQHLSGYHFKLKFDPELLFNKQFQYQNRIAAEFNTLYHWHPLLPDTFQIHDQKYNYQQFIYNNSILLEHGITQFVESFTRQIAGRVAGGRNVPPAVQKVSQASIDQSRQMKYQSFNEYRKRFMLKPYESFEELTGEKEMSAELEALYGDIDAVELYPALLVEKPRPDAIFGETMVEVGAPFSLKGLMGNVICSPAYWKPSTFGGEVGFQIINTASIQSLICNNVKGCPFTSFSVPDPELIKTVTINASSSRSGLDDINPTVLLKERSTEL
Experimental: (§1) Recombinant human enzymes were reconstituted in buffer (100 mM Tris, pH 7.8 at 37° C.) containing 0.5 mM phenol (964 μl total volume). The enzyme preparations were preincubated with vehicle (DMSO) or compounds of the invention in DMSO (1% DMSO in final assay) for 10 min at 25° C. for COX-1 and 5 min at 22° C. for COX-2. Excess hematin was added 1 min prior to initiation of reaction (1.25 μM final hematin) with 4 μM (COX-1) and 2 μM (COX-2) arachidonic acid (sodium salt). The final assay volume was 1.0 ml (100 mM Tris (pH 7.8), 0.5 mM phenol, 1.25 μM hematin and arachidonic acid at 37° C.). The reaction was incubated for 35 s (maximum level of COX-2 accumulation as determined from time course studies), and terminated by addition of 50-60 μl of SnCl2 (1 mg/ml) in 0.1 N HCl. PGE2 production in the presence or absence of the drug was determined by Enzyme Immunoassay (EIA) analysis as described.
(§2) EIA Determination of Prostaglandins
(§3) EIA reagents for prostaglandin determination were purchased from commercial sources. PGE2 levels in enzyme assays were measured against standards prepared in the same milieu using standard methods. The EIA was conducted in 96-well micotiter plates and optical density measured using a microplate reader by standard methods.

[1] = test system: human MiaPaCa-2 pancreatic cancer cells; test: In vitro cellular proliferation assay (SRB); assay type: cell-based; conditions: MIA PaCa-2, 72 h, 3 days incubation, starting concentration 100 μM, read-out: IC50 (growth inhibition, MiaPaCa-2)
Experimental: In vitro cell proliferation assays were performed using a 96-well plate based SRB (Sulforhodamine-B) assay. Briefly, human MiaPaCa-2 pancreatic cancer cells were plated in 100 μl medium on day 0 in 96-well microtiter plates (Falcon #3072). On day 1, 10 μl of serial dilutions of each compound (Nine 1:2 dilutions with a starting concentration of 100 μM) were added in triplicates to the plates. As a vehicle control, serial dilutions of DMSO with a starting concentration of 0.5% were also included. After incubation for 3 days at 37° C. in a humidified incubator, cells were fixed in situ with 50 μL of cold trichloroacetic acid (TCA, final concentration at 10% w/v) for 60 minutes. Cells were then washed 5 times with H2O and air-dried. Next, cells were stained with 20 μL of 0.2% SRB in 1% acetic acid and incubated at room temperature for 30 minutes and unbound SRB was removed by washing 5 times with 1% acetic acid and air-dried. Finally, bound SRB stain was solubilized in 50 μL of 50 μM Tris buffer before taking an optical density measurement at 570 nm using a BioTek Synergy™ HT Multiple Detection microplate reader. The growth inhibition data were expressed as the percentage of cell survival calculated from the background corrected absorbance. The surviving fraction of cells was determined by dividing the mean absorbance values of the test agent-treated samples by the mean absorbance values of untreated control.

Recombinant human COX-1 = Recombinant human COX-1 (Homo sapiens, UniProt P23219); test: Recombinant human COX-1 enzyme assay (PGE2 by EIA); assay type: biochemical
Recombinant human COX-1, sequence (P23219 24-599): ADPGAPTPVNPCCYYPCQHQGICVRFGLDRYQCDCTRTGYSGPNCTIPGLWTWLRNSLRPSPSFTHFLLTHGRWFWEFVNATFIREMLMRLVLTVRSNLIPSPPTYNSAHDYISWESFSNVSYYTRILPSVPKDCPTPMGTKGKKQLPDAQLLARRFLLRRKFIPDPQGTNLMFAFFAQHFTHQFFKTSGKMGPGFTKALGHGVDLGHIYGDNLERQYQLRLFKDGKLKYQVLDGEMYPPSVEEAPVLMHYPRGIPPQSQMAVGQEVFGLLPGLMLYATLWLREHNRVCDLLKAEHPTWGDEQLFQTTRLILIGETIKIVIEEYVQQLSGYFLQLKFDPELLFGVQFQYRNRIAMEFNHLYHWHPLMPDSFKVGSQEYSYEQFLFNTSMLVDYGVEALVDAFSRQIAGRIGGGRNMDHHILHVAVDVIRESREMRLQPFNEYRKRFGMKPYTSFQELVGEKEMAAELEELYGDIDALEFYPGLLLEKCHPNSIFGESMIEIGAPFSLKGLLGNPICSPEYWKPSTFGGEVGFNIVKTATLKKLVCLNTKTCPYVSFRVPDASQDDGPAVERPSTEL
Experimental: as §1, with “Excess hematin was added 1 min prior to initiation of reaction (1.25 μM final hematin) with 4 μM (COX-1) and 2 μM (COX-2) arachidonic acid (sodium salt). The final assay volume was 1.0 ml (100 mM Tris (pH 7.8), 0.5 mM phenol, 1.25 μM hematin and arachidonic acid at 37° C.).” left out
as §2, §3

Compound: COc1ccc2c(c1)c(CC(=O)NCCC[Si](C)(C)C)c(C)n2C(=O)c1ccc(Cl)cc1 [Example 1, 2-(1-(4-chlorobenzoyl)-5-methoxy-2-methyl-1H-indol-3-yl)-N-(3-(trimethylsilyl)propyl)acetamide]
pIC50 (Recombinant human COX-2): 6.68 | melting point: 97 to 101 °C | pIC50 [1]: 5.18 | pIC50 (Recombinant human COX-1): < 5.00

Compound: COc1ccc2c(c1)c(CC(=O)NC[Si](C)(C)C)c(C)n2C(=O)c1ccc(Cl)cc1 [Example 2, 2-(1-(4-chlorobenzoyl)-5-methoxy-2-methyl-1H-indol-3-yl)-N-((trimethylsilyl)methyl)acetamide]
pIC50 (Recombinant human COX-2): 6.41 | melting point: 163 to 165 °C | pIC50 [1]: 4.84 | pIC50 (Recombinant human COX-1): 5.57

Compound: COc1ccc2c(c1)c(CC(=O)NC[Si](C)(C)c1ccccc1)c(C)n2C(=O)c1ccc(Cl)cc1 [Example 3, 2-(1-(4-chlorobenzoyl)-5-methoxy-2-methyl-1H-indol-3-yl)-N-((dimethyl(phenyl)silyl)methyl)acetamide]
pIC50 (Recombinant human COX-2): 6.51 | melting point: 121 to 124 °C | pIC50 [1]: 5.32 | pIC50 (Recombinant human COX-1): < 5.00

Compound: CCO[Si](CCCNC(=O)Cc1c(C)n(C(=O)c2ccc(Cl)cc2)c2ccc(OC)cc12)(OCC)OCC [Example 4, 2-(1-(4-chlorobenzoyl)-5-methoxy-2-methyl-1H-indol-3-yl)-N-(3-(triethoxysilyl)propyl)acetamide]
pIC50 (Recombinant human COX-2): 6.24 | melting point: 71 to 73 °C (dec.) | pIC50 [1]: 4.70 | pIC50 (Recombinant human COX-1): 5.30

pIC50 [1]: < 4.00
Compound: COc1ccc2c(c1)c(CC(=O)O)c(C)n2C(=O)c1ccc(Cl)cc1 [Indomethacin, reference compound]
